Measurements as given in US9012635B2, “Pyridone amides and analogs exhibiting anti-cancer and anti-proliferative activities” (Deciphera Pharmaceuticals, LLC, priority 2013, dated 2015).
Counter-ions that a name gives are not always drawn.

How the values were obtained:
[1] = target: T1, c-MET kinase (Seq. ID No. 2) (Homo sapiens, UniProt P08581); assay: c-MET kinase assay (pyruvate kinase/lactate dehydrogenase coupled, A340); assay type: biochemical; conditions: enzymatic assay, 0.5 h pre-incubation, ATP 100 μM; read-out: cMET
T1 construct: c-MET (c-MET residues: 956-1390, from Invitrogen, catalogue #PV3143, 6 nM); purchased Invitrogen PV3143
Procedure: Activity of c-MET kinase (Seq. ID No. 2) was determined by following the production of ADP from the kinase reaction through coupling with the pyruvate kinase/lactate dehydrogenase system (e.g., Schindler et al. Science 2000, 289, pp. 1938-1942). In this assay, the oxidation of NADH (thus the decrease at A340 nm) was continuously monitored spectrophotometrically. The reaction mixture (100 μl) contained c-MET (c-MET residues: 956-1390, from Invitrogen, catalogue #PV3143, 6 nM), polyE4Y (1 mg/mL), MgCl2 (10 mM), pyruvate kinase (4 units), lactate dehydrogenase (0.7 units), phosphoenol pyruvate (1 mM), and NADH (0.28 mM) in 90 mM Tris buffer containing 0.25 mM DTT, 0.2% octyl-glucoside and 1% DMSO, pH 7.5. Test compounds were incubated with c-MET (Seq. ID No. 2) and other reaction reagents at 22° C. for 0.5 h before ATP (100 μM) was added to start the reaction. The absorption at 340 nm was monitored continuously for 2 hours at 30° C. on Polarstar Optima plate reader (BMG). The reaction rate was calculated using the 1.0 to 2.0 h time frame. Percent inhibition was obtained by comparison of reaction rate with that of a control (i.e., with no test compound). IC50 values were calculated from a series of percent inhibition values determined at a range of inhibitor concentrations using software routines as implemented in the GraphPad Prism software package.

[2] = target: T2, c-KIT kinase (Seq. ID No. 1) (Homo sapiens, UniProt P10721); assay: c-KIT kinase assay (pyruvate kinase/lactate dehydrogenase coupled, A340); assay type: biochemical; conditions: enzymatic assay, ATP 200 μM; read-out: cKIT
T2 construct: c-KIT (cKIT residues T544-V976, from ProQinase, 5.4 nM); purchased ProQinase
Procedure: Activity of c-KIT kinase (Seq. ID No. 1) was determined by following the production of ADP from the kinase reaction through coupling with the pyruvate kinase/lactate dehydrogenase system (e.g., Schindler et al. Science 2000, 289, pp. 1938-1942). In this assay, the oxidation of NADH (thus the decrease at A340 nm) was continuously monitored spectrophotometrically. The reaction mixture (100 μl) contained c-KIT (cKIT residues T544-V976, from ProQinase, 5.4 nM), polyE4Y (1 mg/mL), MgCl2 (10 mM), pyruvate kinase (4 units), lactate dehydrogenase (0.7 units), phosphoenol pyruvate (1 mM), and NADH (0.28 mM) in 90 mM Tris buffer containing 0.2% octyl-glucoside and 1% DMSO, pH 7.5. Test compounds were incubated with c-KIT (Seq. ID No. 1) and other reaction reagents at 22° C. for less than 2 min before ATP (200 μM) was added to start the reaction. The absorption at 340 nm was monitored continuously for 0.5 hours at 30° C. on Polarstar Optima plate reader (BMG). The reaction rate was calculated using the 0 to 0.5 h time frame. Percent inhibition was obtained by comparison of reaction rate with that of a control (i.e., with no test compound). IC50 values were calculated from a series of percent inhibition values determined at a range of inhibitor concentrations using software routines as implemented in the GraphPad Prism software package.

[3] = target: KDR kinase (Seq ID No. 3) (Homo sapiens, UniProt P35968, DEL940-989/E990V); assay: KDR kinase assay (assays K1, K2, K3); assay type: biochemical; conditions: enzymatic assay; variant K1, K2 or K3 not given
Procedure: The activity of KDR kinase was determined by following the production of ADP from the kinase reaction through coupling with the pyruvate kinase/lactate dehydrogenase system (e.g., Schindler et al. Science 2000, 289, pp. 1938-1942). In this assay, the oxidation of NADH (thus the decrease at A340 nm) was continuously monitored spectrophotometrically. The reaction mixture (100 μl) contained KDR (Seq ID No. 3, 1.5 nM to 7.1 nM, nominal concentration), polyE4Y (1 mg/mL), pyruvate kinase (3.5 units), lactate dehydrogenase (5.5 units), phosphoenolpyruvate (1 mM), and NADH (0.28 mM) in 60 mM Tris buffer containing 0.13% octyl-glucoside, 13 mM MgCl2, 6.8 mM DTT, test compound, and 3.5% DMSO at pH 7.5. The reaction was initiated by adding ATP (0.2 mM, final concentration). The absorption at 340 nm was continuously monitored for 3 h at 30° C. on a Polarstar Optima plate reader (BMG) or instrument of similar capacity. The reaction rate was calculated using the 1 h to 2 h time frame. Percent inhibition was obtained by comparison of reaction rate with that of a control (i.e., with no test compound). IC50 values were calculated from a series of percent inhibition values determined at a range of inhibitor concentrations using software routines as implemented in the GraphPad Prism software package.
KDR kinase assay K2 is the same as for assay K1 except that (1) a nominal concentration of 2.1 nM of enzyme was employed (2) the reaction was pre-incubated with test compound at 30° C. for 2 h prior to initiation with ATP and (3) 1.0 mM ATP (final concentration) was used to initiate the reaction.
KDR kinase assay K3 is the same as for assay K1 except that (1) a nominal concentration of 1.1 nM of enzyme was employed, (2) the buffer components per 100 μl reaction mixture were as follows: 75 mM Tris buffer containing 0.066% octyl-glucoside, 17 mM MgCl2, and 1% DMSO at pH 7.5, (3) the final concentration of DTT was 0.66 mM, (4) the reaction was pre-incubated with test compound at 30° C. for 1 h prior to initiation with ATP, and (5) 1.0 mM ATP (final concentration) was used to initiate the reaction.

EBC-1 cells = assay: EBC-1 cell proliferation assay (resazurin); assay type: cell-based; conditions: Homo sapiens, 67 h + 5 h resazurin, read-out: EBC1 Proliferation
Procedure: (§1) EBC-1 cells (catalog #JCRB0820) were obtained from the Japan Health Science Research Resources Bank, Osaka, Japan. Briefly, cells were grown in DMEM supplemented with 10% characterized fetal bovine serum (Invitrogen, Carlsbad, Calif.) at 37° C., 5% CO2, 95% humidity. Cells were allowed to expand until reaching 70-95% confluency at which point they were subcultured or harvested for assay use.
(§2) A serial dilution of test compound was dispensed into a 96-well black clear bottom plate (Corning, Corning, N.Y.). For each cell line, five thousand cells were added per well in 200 μL complete growth medium. Plates were incubated for 67 hours at 37° C., 5% CO2, 95% humidity. At the end of the incubation period 40 μL of a 440 μM solution of resazurin (Sigma, St. Louis, Mo.) in PBS was added to each well and incubated for an additional 5 hours at 37° C., 5% CO2, 95% humidity. Plates were read on a Synergy2 reader (Biotek, Winooski, Vt.) using an excitation of 540 nm and an emission of 600 nm. Data was analyzed using Prism software (GraphPad, San Diego, Calif.) to calculate IC50 values.

MKN-45 cells = assay: MKN-45 cell proliferation assay (resazurin); assay type: cell-based; conditions: Homo sapiens, 67 h + 5 h resazurin
Procedure: as §1, with “MKN-45” for “EBC-1”, “#JCRB0254)” for “#JCRB0820)”, “RPMI 1640 media” for “DMEM”
as §2, with “Corning, N.Y.). Five thousand cells” for “Corning, N.Y.). For each cell line, five thousand cells”, “well and plates were incubated for” for “well and incubated for”, “additional 5 h at 37°” for “additional 5 hours at 37°”

T2 sequence (P10721 with tags, fused parts or gaps): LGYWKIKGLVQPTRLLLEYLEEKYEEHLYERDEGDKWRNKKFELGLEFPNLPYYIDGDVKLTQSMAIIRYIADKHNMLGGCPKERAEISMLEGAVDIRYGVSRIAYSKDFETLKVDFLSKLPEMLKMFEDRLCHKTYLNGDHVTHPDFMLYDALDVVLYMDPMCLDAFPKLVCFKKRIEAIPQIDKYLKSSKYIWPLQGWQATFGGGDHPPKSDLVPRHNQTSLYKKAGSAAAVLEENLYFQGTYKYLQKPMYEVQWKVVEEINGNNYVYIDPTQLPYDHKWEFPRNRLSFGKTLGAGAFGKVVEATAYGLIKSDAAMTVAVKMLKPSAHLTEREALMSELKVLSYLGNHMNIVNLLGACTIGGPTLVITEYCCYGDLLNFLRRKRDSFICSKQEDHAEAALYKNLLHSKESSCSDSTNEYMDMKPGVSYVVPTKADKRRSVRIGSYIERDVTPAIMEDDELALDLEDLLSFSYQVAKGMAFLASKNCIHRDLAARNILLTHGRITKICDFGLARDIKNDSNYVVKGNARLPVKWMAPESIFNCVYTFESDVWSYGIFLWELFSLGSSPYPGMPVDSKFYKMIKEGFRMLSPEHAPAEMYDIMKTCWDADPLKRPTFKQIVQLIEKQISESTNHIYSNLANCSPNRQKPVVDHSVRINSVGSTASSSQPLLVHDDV
Chain of KDR kinase (Seq ID No. 3) (P35968 with tags, fused parts or gaps DEL940-989/E990V): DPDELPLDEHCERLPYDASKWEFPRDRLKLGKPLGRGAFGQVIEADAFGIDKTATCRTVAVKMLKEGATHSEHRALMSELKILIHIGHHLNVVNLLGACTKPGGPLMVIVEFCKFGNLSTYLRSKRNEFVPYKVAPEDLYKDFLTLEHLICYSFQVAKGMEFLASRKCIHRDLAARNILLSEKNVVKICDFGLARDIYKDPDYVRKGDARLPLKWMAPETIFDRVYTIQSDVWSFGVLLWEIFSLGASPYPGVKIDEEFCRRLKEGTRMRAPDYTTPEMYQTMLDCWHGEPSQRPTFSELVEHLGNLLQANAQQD
T1 sequence (P08581 with tags, fused parts or gaps): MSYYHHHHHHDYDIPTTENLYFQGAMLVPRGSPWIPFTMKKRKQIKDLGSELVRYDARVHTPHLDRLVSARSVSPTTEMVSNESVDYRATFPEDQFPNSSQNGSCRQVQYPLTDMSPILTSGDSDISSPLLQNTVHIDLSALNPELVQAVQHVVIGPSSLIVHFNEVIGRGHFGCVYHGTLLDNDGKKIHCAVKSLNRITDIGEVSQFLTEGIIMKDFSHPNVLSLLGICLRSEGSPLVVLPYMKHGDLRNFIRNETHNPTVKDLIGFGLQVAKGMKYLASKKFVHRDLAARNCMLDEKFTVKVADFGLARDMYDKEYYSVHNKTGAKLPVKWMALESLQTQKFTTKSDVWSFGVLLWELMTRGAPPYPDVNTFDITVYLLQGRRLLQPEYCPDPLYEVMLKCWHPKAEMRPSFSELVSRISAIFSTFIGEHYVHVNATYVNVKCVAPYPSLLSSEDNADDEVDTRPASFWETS

Cn1cc(-c2cc(Oc3cc(F)c(NC(=O)c4c[nH]cc(-c5ccc(F)cc5)c4=O)cc3F)ccn2)cn1 [Example 10, N-(2,5-difluoro-4-((2-(1-methyl-1H-pyrazol-4-yl)pyridin-4-yl)oxy)phenyl)-5-(4-fluorophenyl)-4-oxo-1,4-dihydropyridine-3-carboxamide]
IC50 [1]: ≤ 100 nM
IC50 [2]: ≤ 100 nM
IC50 [3]: 100 to 1000 nM

CNc1ccn(-c2ccc(F)cc2)c(=O)c1C(=O)Nc1cc(F)c(Oc2ccnc(-c3cnn(C)c3)c2)cc1F [Example 4, N-(2,5-difluoro-4-((2-(1-methyl-1H-pyrazol-4-yl)pyridin-4-yl)oxy)phenyl)-1-(4-fluorophenyl)-4-(methylamino)-2-oxo-1,2-dihydropyridine-3-carboxamide]
IC50 [1]: ≤ 100 nM
IC50 [2]: 100 to 1000 nM
IC50 [3]: > 1000 nM
IC50 (EBC-1 cells): 100 to 1000 nM
IC50 (MKN-45 cells): > 1000 nM

CCOc1ccn(-c2ccc(F)cc2)c(=O)c1C(=O)Nc1cc(F)c(Oc2ccnc(-c3cnn(CC)c3)c2)cc1F [Example 7, 4-ethoxy-N-(4-((2-(1-ethyl-1H-pyrazol-4-yl)pyridin-4-yl)oxy)-2,5-difluorophenyl)-1-(4-fluorophenyl)-2-oxo-1,2-dihydropyridine-3-carboxamide]
IC50 [1]: ≤ 100 nM
IC50 [2]: > 1000 nM
IC50 [3]: > 1000 nM
IC50 (EBC-1 cells): ≤ 100 nM
IC50 (MKN-45 cells): ≤ 100 nM

Cn1cc(C(=O)Nc2cc(F)c(Oc3ccnc(-c4cnn(C)c4)c3)cc2F)c(=O)c(-c2ccc(F)cc2)c1 [Example 9, N-(2,5-difluoro-4-((2-(1-methyl-1H-pyrazol-4-yl)pyridin-4-yl)oxy)phenyl)-5-(4-fluorophenyl)-1-methyl-4-oxo-1,4-dihydropyridine-3-carboxamide]
IC50 [1]: ≤ 100 nM
IC50 [2]: ≤ 100 nM
IC50 [3]: > 1000 nM

CCOc1ccn(-c2ccc(F)cc2)c(=O)c1C(=O)Nc1cc(F)c(Oc2ccnc(-c3cnn(C(C)C)c3)c2)cc1F [Example 6, N-(2,5-difluoro-4-((2-(1-isopropyl-1H-pyrazol-4-yl)pyridin-4-yl)oxy)phenyl)-4-ethoxy-1-(4-fluorophenyl)-2-oxo-1,2-dihydropyridine-3-carboxamide]
IC50 [1]: ≤ 100 nM
IC50 [2]: > 1000 nM
IC50 [3]: > 1000 nM
IC50 (EBC-1 cells): 100 to 1000 nM
IC50 (MKN-45 cells): 100 to 1000 nM

CCOc1ccn(-c2ccc(F)cc2)c(=O)c1C(=O)Nc1cc(F)c(Oc2ccnc(-c3cn[nH]c3)c2)cc1F [Example 8, N-(4-((2-(1H-pyrazol-4-yl)pyridin-4-yl)oxy)-2,5-difluorophenyl)-4-ethoxy-1-(4-fluorophenyl)-2-oxo-1,2-dihydropyridine-3-carboxamide hydrochloride]
IC50 [1]: ≤ 100 nM
IC50 [2]: > 1000 nM
IC50 [3]: > 1000 nM
IC50 (EBC-1 cells): 100 to 1000 nM
IC50 (MKN-45 cells): 100 to 1000 nM
